Data on 1 molecule can be found in US20240099951A1, “HAIR GROWTH STIMULANT” (ADJUVANT HOLDINGS CO., LTD., priority 2020, published 2024).

Structures are written as SMILES.

The subject of this test is BALB/c-nu/nu mice. Put plainly: Evaluation of mitogenic activity (BrdU immunostaining of skin tissue). The test is classed as in vivo. The settings on record: once per day for 7 days. As for the experimental part: Dorsal body hair skin was collected from BALB/c-nu/nu mice (Japan SLC, Inc.; Japan) of age 7 to 8 weeks. Testing and breeding of animals complied with pertinent laws, regulations, ordinances, and guidelines, and was performed with the approval of the Experimental Ethics Review Board of the Institute of Physical and Chemical Research. The following drugs were respectively prepared. • Working Example: 3% phytosphingosine solution • Comparative Example: 60% aqueous ethanol solution A micropipette was used to apply 25 μL of the drug to the left and right dorsal regions of the BALB/c-nu/nu mice. A dryer was thereafter used to cause cool air to be directed at the location where this was applied and rapidly dry the drug. This procedure was carried out in repetitive fashion four times at each the left and right dorsal regions. This drug application procedure was carried out for seven days starting from the day following depilation. 24 hours and 48 hours prior to collection of dorsal body hair skin from BALB/c-nu/nu mice on which the drug had been applied for 7 days, a syringe (Terumo Corporation; Japan) was used to administer 0.5 mL of 10 mg/mL BrdU/physiological saline solution to the abdomen in the region of the hind legs of each mouse. Following euthanization by cervical dislocation of the BALB/c-nu/nu mice on the eighth day at the same time as when administration had been carried out, skin tissue was collected in a manner such as would not cause damage to the hair bulb. The collected skin tissue was immersed for 16 to 24 hours in SuperFix (Toyobo Co., Ltd.; Japan) fixative solution, following which this was washed four times in 1×PBS, placed in fresh 1X PBS, and stored. The necessary portion of the collected skin tissue was cut out therefrom, and a paraffin fluid exchange apparatus (Leica Microsystems GmbH; Germany) was used to fabricate a paraffin block therefrom. […] BrdU counts were measured at three locations of 100 μm^2 for the epidermal layer and the dermal layer, measurement being carried out at three sites of size on the same order for the hair follicle. […]

As for `CCCCCCCCCCCCCC[C@@H](O)[C@@H](O)[C@@H](N)CO` [phytosphingosine], where the note is “3% phytosphingosine solution”, the “mitogenic activity (BrdU counts) as compared with the negative control and the positive control” value is “trend toward increased mitogenic activity”; the “mitogenic activity at the basal layer of the epidermis” value is given as “increase in mitogenic activity”. Further, the “mitogenic activity at the hair follicle” value (3% phytosphingosine) was “improved”.
